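Each compound was tested at five concentrations against cells in 96-well plates for 48 hours. GI50: concentration for 50% inhibition of growth.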 Active and inactive are the calls of the source. Cut-off read from the data, not from the text of the source: active = GI50 up to about 1.1 µM and inactive = higher.
Tests used:
Assay in all cases: growth of human tumour cells (NCI), 48 h
UO-31 = test system: UO-31
OVCAR-5 = test system: OVCAR-5
SK-MEL-28 = test system: SK-MEL-28
U-251 = test system: U-251
IGROV-1 = test system: IGROV-1
OVCAR-4 = test system: OVCAR-4
UACC-257 = test system: UACC-257
Malme-3M = test system: Malme-3M
ACHN = test system: ACHN
786-0 = test system: 786-0
SR = test system: SR
SNB-19 = test system: SNB-19
LOX IMVI = test system: LOX IMVI
EKVX = test system: EKVX
NCI-H522 = test system: NCI-H522

Measured: GI50

CCN(CC)CCCCC1CCN(CC(=O)N2c3cc(Cl)ccc3NC(=O)CC2C)CC1 (stereo unspecified)
inactive: UO-31 > 100 µM | OVCAR-5 > 100 µM | SK-MEL-28 > 100 µM | U-251 > 100 µM | IGROV-1 > 100 µM | OVCAR-4 > 100 µM | UACC-257 > 100 µM | Malme-3M > 100 µM | ACHN > 100 µM | 786-0 > 100 µM | SR 74 µM | SNB-19 > 100 µM | LOX IMVI > 100 µM

C(=N\CC/N=C/c1cccc2ccccc12)/c1cccc2ccccc12
inactive: UO-31 > 100 µM | OVCAR-5 > 100 µM | EKVX > 100 µM | SK-MEL-28 > 100 µM | U-251 > 100 µM | NCI-H522 > 100 µM | IGROV-1 > 100 µM | OVCAR-4 > 100 µM | UACC-257 > 100 µM | Malme-3M > 100 µM | ACHN > 100 µM | 786-0 > 100 µM | SR > 100 µM | SNB-19 > 100 µM

CC1=C(C(=O)Nc2c(C)cccc2C)C(c2ccccc2Cl)C(C(=O)Nc2c(C)cccc2C)=C(C)N1
inactive: UO-31 > 100 µM | OVCAR-5 > 100 µM | EKVX > 100 µM | SK-MEL-28 > 100 µM | U-251 > 100 µM | NCI-H522 > 100 µM | IGROV-1 > 100 µM | OVCAR-4 > 100 µM | UACC-257 > 100 µM | Malme-3M > 100 µM | ACHN > 100 µM | 786-0 > 100 µM | SNB-19 > 100 µM | LOX IMVI > 100 µM

CC12CCCCC1(C)C2Sc1ccccc1 (stereo unspecified)
inactive: UO-31 57.9 µM | OVCAR-5 > 100 µM | EKVX > 57.3 µM | SK-MEL-28 40.5 µM | U-251 32.3 µM | NCI-H522 28.9 µM | IGROV-1 > 81.7 µM | OVCAR-4 > 73.3 µM | UACC-257 39.1 µM | Malme-3M 63 µM | ACHN 46.2 µM | 786-0 44.8 µM | SNB-19 38.5 µM | LOX IMVI 29.9 µM

O=C(Nc1cccc2c1[nH]c1c(-c3ccccc3)nccc12)c1ccccc1[N+](=O)[O-]
inactive: OVCAR-5 18.6 µM | EKVX 50.9 µM | SK-MEL-28 49.5 µM | U-251 34.2 µM | IGROV-1 54.5 µM | OVCAR-4 38.9 µM | UACC-257 74.6 µM | Malme-3M > 100 µM | ACHN 20.9 µM | SR 12.5 µM | SNB-19 59.8 µM | LOX IMVI 24.5 µM

O=c1cc[nH]c2ccc3nn[nH]c3c12
inactive: OVCAR-5 > 100 µM | EKVX > 100 µM | SK-MEL-28 > 100 µM | U-251 > 100 µM | IGROV-1 > 100 µM | OVCAR-4 > 100 µM | UACC-257 > 100 µM | Malme-3M > 100 µM | ACHN > 100 µM | 786-0 > 100 µM | SNB-19 > 100 µM

CCN(C1=CC(=O)NC2CCCCN12)c1ccccc1 (stereo unspecified)
inactive: UO-31 > 10 µM | OVCAR-5 > 100 µM | EKVX > 100 µM | SK-MEL-28 > 100 µM | U-251 > 100 µM | IGROV-1 > 100 µM | OVCAR-4 > 100 µM | UACC-257 > 100 µM | Malme-3M > 100 µM | ACHN > 100 µM | 786-0 > 100 µM | SNB-19 > 100 µM | LOX IMVI > 100 µM

CCOc1ccccc1NC(=O)C1=C(C)NC(C)=C(C(=O)Nc2ccccc2OCC)C1c1ccc([N+](=O)[O-])cc1
inactive: UO-31 32.7 µM | OVCAR-5 > 100 µM | EKVX 54 µM | SK-MEL-28 > 100 µM | U-251 > 100 µM | NCI-H522 > 100 µM | IGROV-1 45.2 µM | OVCAR-4 68.9 µM | UACC-257 31.2 µM | Malme-3M > 100 µM | ACHN > 100 µM | 786-0 > 100 µM | SR 47.6 µM | SNB-19 > 100 µM

CCCCNC(=O)C1C(=O)N(CCCC)C(=O)/C1=N\N (stereo unspecified)
inactive: UO-31 > 100 µM | OVCAR-5 > 100 µM | EKVX > 100 µM | SK-MEL-28 > 100 µM | U-251 > 100 µM | NCI-H522 > 100 µM | IGROV-1 > 100 µM | OVCAR-4 > 100 µM | UACC-257 > 100 µM | Malme-3M > 100 µM | ACHN > 100 µM | 786-0 > 100 µM | SNB-19 > 100 µM | LOX IMVI > 100 µM

C=CCC1OC(C)(C)Oc2ccc(OCOCCOC)cc21 (stereo unspecified)
inactive: UO-31 > 100 µM | OVCAR-5 > 100 µM | EKVX > 100 µM | SK-MEL-28 > 100 µM | U-251 > 100 µM | IGROV-1 > 100 µM | OVCAR-4 > 100 µM | UACC-257 > 100 µM | Malme-3M > 100 µM | ACHN > 100 µM | 786-0 > 100 µM | SNB-19 > 100 µM | LOX IMVI > 100 µM

O=C(c1ccccc1)c1ccc2c(c1)N=C(c1ccc(Cl)c(Cl)c1)CC(c1ccc3ccccc3c1)N2 (stereo unspecified)
inactive: UO-31 > 100 µM | OVCAR-5 > 100 µM | EKVX > 100 µM | SK-MEL-28 > 100 µM | U-251 > 100 µM | NCI-H522 > 100 µM | IGROV-1 > 100 µM | OVCAR-4 > 100 µM | UACC-257 > 100 µM | ACHN > 100 µM | SR > 100 µM | SNB-19 > 100 µM | LOX IMVI > 100 µM

ClC(Cl)[Si]12OCCN(CCO1)CCO2
inactive: UO-31 > 100 µM | OVCAR-5 > 100 µM | SK-MEL-28 > 100 µM | U-251 > 100 µM | NCI-H522 > 100 µM | IGROV-1 > 100 µM | UACC-257 > 100 µM | Malme-3M > 100 µM | ACHN > 100 µM | 786-0 > 100 µM | SR > 100 µM | SNB-19 > 100 µM

C=CCCC1(C)CCCNC1=S (stereo unspecified)
inactive: UO-31 > 100 µM | OVCAR-5 > 100 µM | EKVX > 100 µM | SK-MEL-28 > 100 µM | U-251 > 100 µM | IGROV-1 > 100 µM | OVCAR-4 > 100 µM | UACC-257 > 100 µM | Malme-3M > 100 µM | ACHN > 100 µM | SR > 100 µM | SNB-19 > 100 µM | LOX IMVI > 100 µM

O=C(O)/C(=C/c1c(O)ccc2ccccc12)c1csc(-c2nc(/C(=C\c3c(O)ccc4ccccc34)C(=O)O)cs2)n1
inactive: UO-31 1.53 µM | OVCAR-5 17.5 µM | EKVX 41.2 µM | SK-MEL-28 14.4 µM | U-251 14 µM | IGROV-1 11.1 µM | UACC-257 14.9 µM | Malme-3M 1.61 µM | ACHN 4.83 µM | 786-0 13.5 µM | SNB-19 13.5 µM | LOX IMVI 19.8 µM

COc1ccc2[nH]c(=O)cc(C)c2c1[N+](=O)[O-]
inactive: UO-31 18.3 µM | OVCAR-5 > 100 µM | EKVX 82 µM | SK-MEL-28 > 100 µM | U-251 > 100 µM | NCI-H522 47.4 µM | IGROV-1 > 100 µM | OVCAR-4 > 100 µM | UACC-257 > 100 µM | Malme-3M > 100 µM | ACHN > 100 µM | 786-0 > 100 µM | SNB-19 > 100 µM | LOX IMVI > 100 µM
